This experiment concerns the target T1, mGlu5bR (metabotropic glutamate receptor type 5) (Rattus norvegicus, UniProt P31424).
T1 construct: gene Grm5; mGlu5bR^NL: NanoLuc fused at the N terminus of rat mGlu5bR, expressed in HEK293T cells
Put plainly: NanoBRET saturation binding in living HEK293T cells, displaced by […] MTEP; also NFAT-luciferase NAM assay. Format: cell-based. (In general: Bioluminescence resonance energy transfer reports proximity on the nanometre scale.)

This passage reports Kd results from paper PMC7180738, “Design, Synthesis and Characterization of a New Series of Fluorescent Metabotropic Glutamate Receptor Type 5 Negative Allosteric Modulators” (Molecules, 2020).

The term Kd denotes a measure of binding affinity in units of concentration.

T1 sequence (P31424 21-1203): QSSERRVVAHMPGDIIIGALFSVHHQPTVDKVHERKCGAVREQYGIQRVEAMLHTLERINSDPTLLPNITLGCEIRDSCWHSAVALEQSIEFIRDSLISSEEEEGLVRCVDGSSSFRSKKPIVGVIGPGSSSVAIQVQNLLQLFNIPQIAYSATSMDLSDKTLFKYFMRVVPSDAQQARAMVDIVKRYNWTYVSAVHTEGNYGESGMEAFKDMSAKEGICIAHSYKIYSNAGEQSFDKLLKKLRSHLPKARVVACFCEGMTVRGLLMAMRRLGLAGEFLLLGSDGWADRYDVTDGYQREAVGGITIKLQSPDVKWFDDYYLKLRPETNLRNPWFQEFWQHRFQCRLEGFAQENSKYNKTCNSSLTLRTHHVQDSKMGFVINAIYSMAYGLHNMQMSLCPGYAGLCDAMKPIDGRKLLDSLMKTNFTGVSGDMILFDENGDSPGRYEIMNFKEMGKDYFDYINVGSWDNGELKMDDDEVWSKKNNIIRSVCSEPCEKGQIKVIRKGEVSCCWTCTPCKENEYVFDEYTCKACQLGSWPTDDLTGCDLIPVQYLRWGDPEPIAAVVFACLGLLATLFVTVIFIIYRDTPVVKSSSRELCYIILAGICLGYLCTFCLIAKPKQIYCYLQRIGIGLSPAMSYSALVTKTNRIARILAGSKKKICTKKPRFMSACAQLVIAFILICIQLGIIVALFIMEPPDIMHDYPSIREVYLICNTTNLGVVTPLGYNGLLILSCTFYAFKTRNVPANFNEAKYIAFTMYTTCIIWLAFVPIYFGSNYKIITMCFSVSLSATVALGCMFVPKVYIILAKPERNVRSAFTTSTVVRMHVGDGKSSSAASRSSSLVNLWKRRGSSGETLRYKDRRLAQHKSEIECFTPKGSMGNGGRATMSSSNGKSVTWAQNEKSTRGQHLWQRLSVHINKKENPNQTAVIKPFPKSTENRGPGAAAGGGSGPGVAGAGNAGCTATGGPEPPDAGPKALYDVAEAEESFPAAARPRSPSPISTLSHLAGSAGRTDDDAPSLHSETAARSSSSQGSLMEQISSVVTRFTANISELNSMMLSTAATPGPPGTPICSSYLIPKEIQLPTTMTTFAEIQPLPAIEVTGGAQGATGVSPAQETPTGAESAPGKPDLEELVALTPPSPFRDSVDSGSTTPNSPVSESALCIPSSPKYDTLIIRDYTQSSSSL

For the compound `COc1ccc(C2=[N+]3C(=C(CCCCc4cn(CCOCCOCCOCCOCCOCCNC(=O)COc5cncc(C#Cc6csc(C)n6)c5)nn4)c4ccc(-c5ccc(OC)cc5)n4[B-]3(F)F)C=C2)cc1` [4a, N-(17-(4-(4-(5,5-difluoro-3,7-bis(4-methoxyphenyl)-5H-4λ^4,5λ^4-dipyrrolo [1,2-c:2’,1’-f][1,3,2]diazaborinin-10-yl)butyl)-1H-1,2,3-triazol-1-yl)-3,6,9,12,15-pentaoxaheptadecyl)-2-((5-((2-methylthiazol-4-yl)ethynyl)pyridin-3-yl)oxy)acetamide], the Kd stood at 840 ± 740 nM.
Then `COc1ccc(C2=[N+]3C(=C(CCCCc4cn(CCCCCCCCN(C)CCCCCNC(=O)COc5cncc(C#Cc6csc(C)n6)c5)nn4)c4ccc(-c5ccc(OC)cc5)n4[B-]3(F)F)C=C2)cc1` [4e, N-(5-((8-(4-(4-(5,5-difluoro-3,7-bis(4-methoxyphenyl)-5H-4λ^4,5λ^4-dipyrrolo[1,2-c:2’,1’-f][1,3,2]diazaborinin-10-yl)butyl)-1H-1,2,3-triazol-1-yl)octyl)(methyl)amino)pentyl)-2-((5-((2-methylthiazol-4-yl)ethynyl)pyridin-3-yl)oxy)acetamide], with 1400 ± 1200 nM.
